Consider seven molecules from patent publication US5908787A, “Total protein detection method” (Bayer Corporation, priority 1997, dated 1999).

System in one series: not listed separately
The series is described as follows: pKa of secondary dye. The class given is physicochemical. The note with it: second pKa of the dye. The text has this: Structure A represents the general structure of phenolsulfonephthalein derivatives in protic solvents such as water or an alcohol while structure B represents the form that predominates in the dry state or in aprotic solvents such as ethers and acetonitrile. The phenolsulfonephthalein error indicators are pH indicators which include an ionizable proton having a pKa value such that the proton is displaced by the presence of protein. The pKa value of a phenolsulfonephthalein indicator is the pH at which one half of the number of indicator molecules include the deprotonated C ring phenolic hydroxyl group. In the case of the phenolsulfonephthalein protein error indicators illustrated above, two deprotonation events occur in order to cause an observable color change. The first deprotonation removes the proton from the aryl sulfonic acid on the A ring to yield the ion illustrated below as formula C: [drawing 2]
The pKa of this proton is less than one, resulting in the ionization of this moiety at all useful pH values. This ionizable group is also responsible for the aqueous solubility of these compounds. The second deprotonation involves the release of a proton from the C ring phenolic hydroxyl to yield the dianion. With this type of protein error indicator, the second deprotonization causes the observable color change which is indicative of the presence of protein in the sample being tested. The phenolsulfonephthalein protein error indicator is typically applied to an absorbent matrix material along with a buffer to provide an environment of constant pH, so that one can rely on the color change being the result of the presence of protein rather than the result of a pH change upon contact with the test fluid.
In general, pKa refers to the pH at which an ionisable group is half protonated. `O=S1(=O)OC(c2cc(I)c(O)c(I)c2)(c2cc(I)c(O)c(I)c2)c2ccccc21` [Secondary dye 4, Tetraiodophenolsulfonephthalein] yielded a pKa of 4.0.

As for `O=[N+]([O-])c1cc(C2(c3cc(I)c(O)c([N+](=O)[O-])c3)OS(=O)(=O)c3c(Br)c(Br)c(Br)c(Br)c32)cc(I)c1O` [Secondary dye 5, 5',5"-Dinitro-3',3"-Diiodo-3,4,5,6-Tetrabromophenolsulfonephthalein], the pKa was determined as 1.5.

With `O=S1(=O)OC(c2cc(Cl)c(O)c(Br)c2)(c2cc(Cl)c(O)c(Br)c2)c2ccccc21` [Secondary dye 3, Bromochlorophenol blue], the pKa is 3.8.

With `O=[N+]([O-])c1cc(C2(c3cc(Br)c(O)c(I)c3)OS(=O)(=O)c3c(Br)c(Br)c(Br)c(Br)c32)cc(Br)c1O` (centres unmarked) [Secondary dye 7, 5'-Nitro-5''-Iodo-3',3"3,4,5,6-hexabromophenolsulfonephthalein], the pKa was determined as 1.6.

In turn, `O=S1(=O)OC(c2cc(Br)c(O)c(Br)c2)(c2cc(Br)c(O)c(Br)c2)c2ccccc21` [Secondary dye 1, Bromophenol blue] had a pKa of 3.7.

In the case of `O=S1(=O)OC(c2cc(Br)c(O)c(Br)c2)(c2cc(Br)c(O)c(Br)c2)c2c(Br)c(Br)c(Br)c(Br)c21` [Secondary dye 2, Tetrabromophenol blue], the pKa is given as 3.5.

In the case of `O=[N+]([O-])c1cc(C2(c3cc(Br)c(O)c([N+](=O)[O-])c3)OS(=O)(=O)c3c(Br)c(Br)c(Br)c(Br)c32)cc(Br)c1O` [Secondary dye 6, 5',5"-Dinitro-3',3",3,4,5,6-hexabromophenolsulfonephthalein], the pKa amounted to 1.6.

The next series deals with protein. The series is described as follows: Ka, affinity of secondary dye for protein. The class given is binding.
Conditions: not given
The text has this: The phenolsulfonephthalein protein error indicators are used in conjunction with the molybdate or tungstate salt assay for protein in which a fluid test sample is combined with a molybdate or tungstate salt and a dye which forms a complex therewith whose absorption band is shifted in the presence of protein. As is disclosed in U.S. Pat. No. 5,399,498; tungstate reacts with the indicator to form a complex whose color shifts in the presence of protein in a manner similar to that of molybdenum. This patent also discloses the use of phytic acid or derivatives thereof to reduce background interference in this sort of assay. […] This method is a total protein assay since the response is not dependent on the type of protein present in the test sample. […] Since total protein assays are useful in the detection of certain disease states, and the higher the total protein spillover into urine the more serious the potential problem, a total protein assay which provides a detectable response at high protein concentrations is desirable.
As for `O=[N+]([O-])c1cc(C2(c3cc(I)c(O)c([N+](=O)[O-])c3)OS(=O)(=O)c3c(Br)c(Br)c(Br)c(Br)c32)cc(I)c1O` [Secondary dye 5, 5',5"-Dinitro-3',3"-Diiodo-3,4,5,6-Tetrabromophenolsulfonephthalein], the “affinity for protein (in words)” value is recorded as “too high an affinity for proteins”.
